The subject of assay [1] is MCF-7 cells. The assay can be described thus: Cell viability MTT assay, MCF-7. It is filed as cell-based, human. To be noted: for viability at 50 µM: MCF7, 50 µM, n = 4; for IC50: n = 3. As for the experimental part:
(§1) Human breast cancer cell line MCF-7 and T-47D, lung cancer cell line A549, and colon cancer cell line HT-29 were cultured under 5% carbon dioxide at 37 °C in DMEM Glutamax (Gibco, Life Technologies) supplemented with 10% (v/v) FBS. They were split in a ratio of 1:3–1:6 (ideally 2–4 × 10,000 cells/cm^2) when they reached 70–80% confluence using 0.25% Trypsin-EDTA. For cell viability MTT assay, cells were seeded into 96-well clear bottom culture plates (Corning, Lowell, MA, USA) at a density of 5 × 10^3 cells/well and settled at 37 °C for 24 h.
(§2) Seeded cells were treated with various concentrations of compounds for desired time period (24, 48 and 72 h). After the treatments, the media were removed from each well, and replaced with 25 μL of serum-free media and 25 μL of MTT Reagent (cat. no., ab211091; Abcam, Cambridge, MA, USA). The plate was then incubated at 37 °C for 3 h, and 75 μL of MTT Solvent (cat. no., ab211091; Abcam) was added into each well after incubation. The absorbance was evaluated at 590 nm. Cell-wells treated with 0.1% DMSO were used as positive control and no cell-wells were used as background control.
(In general: Tetrazolium assays rely on reduction of a dye to a coloured formazan, in cell work by metabolically active cells.)

Assay [2] deals with CaV3.2 (Homo sapiens, UniProt O95180). Put plainly: T-type calcium channel window current FLIPR assay, CaV3.2. It counts as cell-based. Here is the method:
The human embryonic kidney 293 (HEK 293) cell lines (from Emmanuel Bourinet, Montpellier, France) stably expressing CaV3.2 or CaV3.3 were cultured under 5% carbon dioxide at 37 °C in Dulbecco’s Modified Eagle Medium (DMEM) Glutamax (Gibco, Life Technologies, Carlsbad, CA, USA) supplemented with 10% (v/v) fetal bovine serum (FBS), 100 U/mL penicillin, 100 μg/mL streptomycin (Gibco, Life Technologies, Carlsbad, CA, USA), and 750 μg/mL geneticin (G418) (Gibco, Life Technologies). The Chinese Hamster Ovary (CHO) cell lines (Emmanuel Bourinet, Montpellier, France) expressing CaV3.1 were cultured under 5% carbon dioxide at 37 °C in Alpha Minimum Essential Media (MEM) Glutamax (Gibco, Life Technologies), supplemented with 10% (v/v) fetal bovine serum (FBS) and 300 μg/mL geneticin (G418) (Gibco, Life Technologies). The human neuroblastoma SH-SY5Y cells (Victor Diaz, Goettingen, Germany) were cultured under 5% carbon dioxide at 37 °C in RPMI 1640 antibiotic-free medium (Invitrogen, Carlsbad, CA, USA), supplemented with 15% FBS and 2 mM GlutaMAX™ (Invitrogen). D-PBS (Gibco, Life Technologies) was used to wash the cells, and 0.25% Trypsin-EDTA (Gibco, Life Technologies) was used to detach cells from the flask surface. They were split in a ratio of 1:5 (ideally 1000 cells/cm^2) when they reached 70–80% confluence (every 2–3 days). Transiently transfected CaV3.1 HEK293 T cells were used in FLIPR Assays. HEK 293 T cells were cultured under 5% carbon dioxide at 37 °C in DMEM supplemented with 10% (v/v) FBS. D-PBS was used to wash the cells, and 0.25% Trypsin-EDTA was used to detach cells from the flask surface. The cells were split and seeded at 6 million cells per T175 flask, to reach 70–80% confluence after 24 h. The next day, 12 μg DNA of human CaV3.1 was incubated in 900 μL serum-free DMEM with 36 μL FuGENE HD transfection reagent (Promega Corporation, Madison, WI, USA) (1:3 DNA/Fugene ratio) for 20 min, and then the mixture was added into the cell flask slowly, drop by drop. After the transfection, the cells were cultured under 5% carbon dioxide at 37 °C for 24 h and then moved to a 28 °C incubator.
(§3) HEK 293 cells stably expressing CaV3.2 or CaV3.3 were seeded into 384-well black wall clear bottom plates (Corning) at a density of 30,000 cells per well. Transiently transfected CaV3.1HEK293 T cells were seeded into 384-well black wall clear bottom plates at a density of 60,000 cells per well. Once the cells reached 90–95% confluence after 24 h, the media were removed from the wells and replaced with 20 μL of 10% calcium 4 dye (Molecular Devices, Sunnyvale, CA, USA) in HBSS-HEPES (containing 5 mM KCl, 10 mM HEPES, 140 mM NaCl, 10 mM glucose, and 0.5 mM CaCl2, pH 7.4) with 0.1% bovine serum albumin (BSA). The cells were incubated for 30 min at 37 °C in the presence of 5% carbon dioxide. Each well on the reagent plates for the first addition contained 15 μL different concentrations of compounds dissolved in HBSS-HEPES containing 0.1% BSA and <0.5% DMSO and was incubated for 20 min after loaded. Positive and negative controls contained 15 μL of HBSS-HEPES (0.1% BSA) alone. The plates were placed in the FLIPR^TETRA (Molecular Devices, Sunnyvale, CA, USA) programmed to measure maximum fluorescence intensity following a second addition of the agonist 5 mM CaCl2. The fluorescence readings were recorded and converted as described previously, and HBSS-HEPES (0.1% BSA) was used in the second addition as a negative control.

In assay [3] the test system is voltage-gated calcium channels (VGCC). Put plainly: VGCC FLIPR cell-based assays, all channels (overall observation). Also noted: species or system human. Here is the method:
as §3
SH-SY5Y cells were seeded into 384-well black wall clear bottom plates at a density of 15,000 cells per well, resulting in 90–95% confluence after 24 h. The media were then removed from the wells and replaced with 20 μL of 10% calcium 4 dye (Molecular Devices) in physiological salt solution (PSS) (containing 5.9 mM KCl, 1.4 mM MgCl2, 10 mM HEPES, 1.2 mM NaH2 PO4, 5 mM NaHCO3, 140 mM NaCl, 11.5 mM glucose, and 1.8 mM CaCl2, pH 7.4) with 0.1% BSA. As reported, for N-type calcium channel FLIPR assays the cells were pre-incubated with 10 µM nifedipine added in the dye to ensure full inhibition of L-type calcium responses. For L-type calcium channel FLIPR assays, the cells were pre-incubated with 1 µM CVID added in the dye to ensure full inhibition of N-type calcium responses. Positive control on the first reagent plate contained 15 μL of PSS (0.1% BSA), whereas PSS (0.1% BSA) containing 1 µM CVID and 10 µM nifedipine (final concentration) was used as a negative control. The fluorescence readings were recorded and converted as described previously, and agonist containing 90 mM KCl + 5 mM CaCl2 was used in the second addition.

The subject of assay [4] is MCF-7, T-47D, A549 and HT-29 cells. The assay can be described thus: Cell viability MTT assay, four cancer cell lines (overall). The conditions noted are these: 50 µM, 72 h. It counts as cell-based, human. Here is the method: as §1, §2
[5] abbreviates: Homo sapiens, MCF7, 72 h, 72 h treatment.
[6] abbreviates: FLIPR window current, n = 3, read-out: IC50 CaV3.2 (LVA CaVs).
The mark [7] stands for this setting: FLIPR, one separate experiment in quadruplicate (n = 4), read-out: IC50 of representative concentration-response curve, CaV3.2 window current.

In general, viability refers to a read-out of living cells in per cent, often relative to untreated cells. A low value points to more harm to the cells.

Read-outs that look alike come from different tables or passages of the source.

CaV3.2, sequence (O95180 whole entry): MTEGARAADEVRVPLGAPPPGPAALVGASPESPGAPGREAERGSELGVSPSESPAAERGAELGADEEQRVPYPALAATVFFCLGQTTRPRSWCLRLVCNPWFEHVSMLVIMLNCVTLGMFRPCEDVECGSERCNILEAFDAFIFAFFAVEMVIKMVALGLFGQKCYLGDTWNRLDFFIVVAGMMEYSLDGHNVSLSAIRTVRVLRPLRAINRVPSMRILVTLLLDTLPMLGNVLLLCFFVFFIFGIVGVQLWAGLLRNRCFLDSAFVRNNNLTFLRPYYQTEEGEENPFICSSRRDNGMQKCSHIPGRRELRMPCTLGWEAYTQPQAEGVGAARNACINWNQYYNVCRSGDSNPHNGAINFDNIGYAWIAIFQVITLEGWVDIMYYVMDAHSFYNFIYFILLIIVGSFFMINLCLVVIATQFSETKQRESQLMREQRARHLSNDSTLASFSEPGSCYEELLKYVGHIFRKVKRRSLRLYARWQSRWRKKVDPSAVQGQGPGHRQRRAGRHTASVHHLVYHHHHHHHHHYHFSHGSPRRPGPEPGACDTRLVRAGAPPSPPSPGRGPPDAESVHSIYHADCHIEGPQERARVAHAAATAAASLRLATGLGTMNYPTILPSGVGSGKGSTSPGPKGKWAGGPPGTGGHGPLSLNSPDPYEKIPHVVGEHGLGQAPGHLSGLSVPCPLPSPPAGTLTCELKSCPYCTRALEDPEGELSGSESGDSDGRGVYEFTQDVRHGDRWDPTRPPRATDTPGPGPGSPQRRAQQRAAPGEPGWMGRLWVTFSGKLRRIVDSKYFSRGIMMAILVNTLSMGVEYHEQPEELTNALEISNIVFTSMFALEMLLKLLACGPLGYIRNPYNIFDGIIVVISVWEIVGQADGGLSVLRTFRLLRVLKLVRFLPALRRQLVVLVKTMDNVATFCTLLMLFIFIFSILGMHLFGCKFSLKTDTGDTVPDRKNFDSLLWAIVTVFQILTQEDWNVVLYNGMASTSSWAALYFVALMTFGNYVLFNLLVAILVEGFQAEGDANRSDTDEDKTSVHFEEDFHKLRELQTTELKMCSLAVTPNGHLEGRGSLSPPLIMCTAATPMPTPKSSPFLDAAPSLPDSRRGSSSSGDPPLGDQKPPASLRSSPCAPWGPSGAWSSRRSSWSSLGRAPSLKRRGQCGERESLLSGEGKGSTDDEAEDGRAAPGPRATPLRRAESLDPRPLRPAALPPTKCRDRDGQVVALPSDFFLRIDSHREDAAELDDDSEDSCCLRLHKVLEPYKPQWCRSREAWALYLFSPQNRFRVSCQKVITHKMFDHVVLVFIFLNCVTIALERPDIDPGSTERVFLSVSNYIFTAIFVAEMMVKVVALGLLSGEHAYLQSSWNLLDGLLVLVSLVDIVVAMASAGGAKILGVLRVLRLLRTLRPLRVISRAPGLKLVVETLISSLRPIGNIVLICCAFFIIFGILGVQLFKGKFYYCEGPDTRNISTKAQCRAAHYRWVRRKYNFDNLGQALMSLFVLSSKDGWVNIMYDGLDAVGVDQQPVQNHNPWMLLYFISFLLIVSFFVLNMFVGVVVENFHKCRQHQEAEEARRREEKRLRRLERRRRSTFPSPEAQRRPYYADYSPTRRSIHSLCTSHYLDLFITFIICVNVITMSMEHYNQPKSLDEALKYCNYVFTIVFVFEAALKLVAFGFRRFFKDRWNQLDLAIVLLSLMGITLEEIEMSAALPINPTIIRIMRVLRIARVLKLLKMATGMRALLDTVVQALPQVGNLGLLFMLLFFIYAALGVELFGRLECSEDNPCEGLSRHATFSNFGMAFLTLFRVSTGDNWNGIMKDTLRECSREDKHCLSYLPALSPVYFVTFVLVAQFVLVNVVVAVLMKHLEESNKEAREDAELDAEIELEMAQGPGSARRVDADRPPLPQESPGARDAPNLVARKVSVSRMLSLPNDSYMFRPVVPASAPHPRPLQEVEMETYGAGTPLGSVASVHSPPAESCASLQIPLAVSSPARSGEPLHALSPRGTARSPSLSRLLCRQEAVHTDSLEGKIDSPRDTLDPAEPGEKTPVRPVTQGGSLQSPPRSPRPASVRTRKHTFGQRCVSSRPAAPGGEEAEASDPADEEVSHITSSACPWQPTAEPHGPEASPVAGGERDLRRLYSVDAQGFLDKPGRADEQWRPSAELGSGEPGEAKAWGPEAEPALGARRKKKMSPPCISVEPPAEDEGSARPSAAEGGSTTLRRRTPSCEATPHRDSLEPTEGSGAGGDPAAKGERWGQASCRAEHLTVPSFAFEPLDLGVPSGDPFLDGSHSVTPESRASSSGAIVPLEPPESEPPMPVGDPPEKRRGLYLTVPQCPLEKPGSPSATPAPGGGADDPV

`c1ccc2c(Cc3c[nH]c4ccccc34)c[nH]c2c1` [DIM, 3,3′-diindolylmethane, reference compound] registered a viability at 50 µM in assay [1] (Homo sapiens, 72 h treatment) of 3.65 ± 0.24%. In addition, the IC50 is 27 µM in assay [1] (setting [5]), 52.2 ± 3.8 µM in assay [2] (setting [6]) and 54.7 µM in assay [2] (setting [7]).
As to `O=C(c1c[nH]c2ccccc12)c1c[nH]c2ccccc12` [DIM-one, 3,3′-diindolylmethanone], the viability at 50 µM in assay [1] (Homo sapiens, 72 h treatment) amounted to 52.3 ± 3.12%. For the same compound, the values for the IC50 in assay [1] (setting [5]), in assay [2] (setting [6]) and in assay [2] (setting [7]) were 42 µM, 73.9 ± 2.48 µM and 74 µM, respectively. Moreover, the “reduced potency for CaV3.2 window current compared to DIM” value in assay [2] (FLIPR) is ~ 1.4 fold.
In the case of `O=C(c1c[nH]c2cc(Br)ccc12)c1c[nH]c2cc(Br)ccc12` [IV], the “inhibition of all the Ca2+ responses” value in assay [3] is “poor inhibition”. The IC50 was 6.1 µM in assay [1] (72 h treatment); 9.8 µM in assay [1] (Homo sapiens, MCF7, 24 h, 24 h treatment); 6 µM in assay [1] (setting [5]); 57.3 ± 3.38 µM in assay [2] (setting [6]). For the same compound, the viability at 50 µM in assay [1] (Homo sapiens, 72 h treatment) was 6.35 ± 0.46%.
Turning to `O=C(c1cn(Cc2ccccc2)c2ccccc12)c1cn(Cc2ccccc2)c2ccccc12` [IX, bis(1-benzyl-1H-indol-3-yl)methanone], in assay [4], the “effect on cancer cell viability” value is listed as “did not affect cancer cell viability”. Further, the IC50 in assay [2] (IC50 CaV3.2 (LVA CaVs), FLIPR window current, n = 3) was determined as 3.05 ± 0.51 µM; in assay [2] (IC50 of representative concentration-response curve, CaV3.2 window current, FLIPR, one separate experiment in quadruplicate (n = 4)), 3.28 µM.

Values taken from PMC9412534, “Diindolylmethane Derivatives: New Selective Blockers for T-Type Calcium Channels” (Membranes, 2022).
